US20210380951A1, “RNA-BASED METHODS TO LAUNCH HEPATITIS B VIRUS INFECTION” (priority 2018, published 2021)
Counter-ions that a name gives are not always drawn.

Columns and labels:
chronic HBV = settings: chronically infected patients, injectable; cited from earlier work
WT HBV = assay: RNA launch method: inhibition of HBV replication from transfected pgRNA, read out as percent HBsAg (CLIA); assay type: cell-based; settings: HBsAg with vs without inhibitor, FIG. 4
Method: The inhibitory effect of three reverse-transcriptase inhibitors, Entecavir (ETV), Tenofovir Disoproxil Fumarate (TDF), and Lamivudine (LAM) on WT HBV was compared. The inhibitory effect of LAM on the HBV viral variant M204V was also measured. The inhibition by the reverse-transcriptase inhibitors was determined as percent HBsAg by comparing the level of HBsAg in the presence and absence of the inhibitors.
HepG2-NTCP or Huh-7.5-NTCP cells were seeded at 2.5×10^5 cells per well in six-well plates two days before transfection. The media was changed to 2 ml DMEM containing 1.5% FBS and 0.1 mM NEAA just before transfection. […]
HBeAg and HBsAg were quantified using a chemiluminescence immunoassay (CLIA) kit (Autobio Diagnostics Co., Zhengzhou, China) according to the manufacturer's instructions. To quantify HBV DNA, total DNA was extracted from infected or RNA-transfected cells using QIAamp DNA Blood Mini Kit (Qiagen, cat. #51106) and HBV DNA was detected by qPCR as previously described (Michalidis et al., Sci Rep. 2017, November 30:7(1):16616). For each experiment, cells were transfected with T7-RFP as a negative control and DNA quantified from these cells was used to define the background. […]

Compound	success rate of curing chronic HBV (chronic HBV) [%]	inhibitory effect on WT HBV (HBV replication, percent HBsAg) (WT HBV)
interferon alpha [IFNα]	~10	–
C=C1[C@H](CO)[C@@H](O)C[C@@H]1n1cnc2c(=O)[nH]c(N)nc21 [Entecavir]	–	inhibited HBV replication in a dose-dependent manner
CC(C)OC(=O)OCOP(=O)(CO[C@H](C)Cn1cnc2c(N)ncnc21)OCOC(=O)OC(C)C [Tenofovir Disoproxil Fumarate]	–	inhibited HBV replication in a dose-dependent manner
